Patent US20240076742A1, “METHODS FOR IMPROVED CANCER TREATMENT” (CELLPHENOMICS GMBH, priority 2020, published 2024)
In brackets after ≈: the same amount, converted by molar mass.

System: colorectal cancer tumor cells with the SMAD4^R361H mutation
Experiment: Cell viability (CellTiterGlo) of patient-derived colorectal tumor cells in Matrigel, SMAD4 R361H
Type: cell-based
Conditions: Homo sapiens, 96 h, SMAD4^R361H loss-of-function mutation, 4-day treatment, FIG. 4, read-out: trametinib concentration at which tumor cell viability decreases below the IC50
Protocol: The mean inhibitory concentration, further referred to as IC50, is the concentration of an inhibitor at which half-maximal inhibition is observed. […] For the experiment, the biological tumor samples were dissociated by incubation with TrypLE Express solution (ThermoFisher Scientific, Germany) and 1.5×10^3 cells per well were seeded in four replicates in Matrigel and overlaid with culture medium. After 3-day incubation at 37° C. in 5% CO2, medium was removed and fresh medium containing trametinib was added. Trametinib was tested in four 1:5 dilution concentrations. Following concentrations were tested: 0.1 μg/ml, 0.02 μg/ml, 0.004 μg/ml and 0.0008 μg/ml. Cells treated with DMSO were used as control while Matrigel only was used for background readout. Staurosporine was used as internal positive control. After 4-day treatment, cell viability was determined by CellTiterGlo® assay. Cell plating, treatment and testing were handled by Biomek FXP Liquid Handler (Beckman Coulter).

IC50: 6 ng/mL (≈ 9.75 nM)
SMILES: CC(=O)Nc1cccc(-n2c(=O)n(C3CC3)c(=O)c3c(Nc4ccc(I)cc4F)n(C)c(=O)c(C)c32)c1 [trametinib, N-(3-{3-Cyclopropyl-5-[(2-fluor-4-iodphenyl)amino]-6,8-dimethyl-2,4,7-trioxo-3,4,6,7-tetrahydropyrido[4,3-d]pyrimidin-1(2H)-yl}phenyl)acetamid]
